Biological target: α-chymotrypsinogen A (aCgn) (Bos taurus, UniProt P00766)
Assay: aCgn aggregation (monomer loss) at 52.5° C. by size exclusion HPLC
Assay type: physicochemical, Bovine
Details: for relative rate constant for aCgn monomer loss: additive concentration near 0.2 M; for aCgn t95/t95, 0 (Shelf-Life Extension Factor): isotonic concentrations, 20 mM sodium citrate pH 5, 52.5° C., time for 5% loss of protein vs no additive
Protocol: The aggregation of aCgn was accelerated by incubating samples at an elevated temperature. […] In addition to all aggregation experiments being conducted at that temperature, all samples contained 10 mg/mL aCgn, held at pH 5.0 using a 20 mM sodium citrate buffer. 50 μL aliquots of each protein-cosolute mixture were placed in 0.2 mL polymerase chain reaction (PCR) tubes and then incubated in a Bio-Rad Mycycler thermal cycler with a timer initiated when the thermal cycler reached the desired temperature. Each series contained 12 samples and up to 8 different mixtures were tested at the same time during any given experiment. Samples were removed periodically and immediately placed in an ice bath to quench the aggregation reaction. The length of each experiment was planned so that the extent of reaction was such that at least 20% of the protein aggregated, making changes in the rate of aggregation pronounced. After at least five minutes in the ice bath, the samples were briefly spun in a minicentrifuge to remove precipitated aggregates and then transferred to autosampler vials.
All aCgn samples were first treated with phenylmethylsulfonyl fluoride to inhibit residual amounts of active enzyme and, after dialysis, solutions were frozen, rather than lyophilized, in 0.3 mL aliquots and used within 6 months. […] Solutions for the aggregation study were prepared by first preparing a solution of the cosolute of interest in a 20 mM sodium citrate pH 5 buffer at a concentration double that of interest (adjusting the pH to 5 if needed with the appropriate acid or an 8 M sodium hydroxide solution), then mixing 0.3 mL of this solution with 0.3 mL of a thawed aCgn solution. This solution was then divided into twelve aliquots, each 50 μL in volume, and incubated at an elevated temperature, as described below.
15 μL, of each aCgn sample were injected into an Agilent 1200 series HPLC, equipped with a Zorbax GF-250 (4.6×250 mm, 4 micron) size exclusion column and a UV-Vis detector, during a sequence. The HPLC mobile phase contained 25 mM citric acid monohydrate, 25 mM sodium acetate, and 200 mM sodium chloride with the pH adjusted to 4.0 using sodium hydroxide. The flow rate was set at 1 mL/min and samples were monitored at 280 nm.
Peak area at each time point was compared to the peak area for an unstressed sample to create a monomer loss profile normalized with respect to the initial concentration. Each profile was compared to a profile for a sample containing no cosolute to determine the change in aggregation rate upon addition of the cosolute. For a control, each aggregation experimental setup had one protein solution that contained no cosolute to verify that the baseline aggregation rate remained constant amongst all experiments.
The most notable consequence of perturbing a protein's environment is the enhancement or inhibition of protein aggregation. Deyoung L R et al. (1993) Accounts Chem Res 26:614-620; Fink A L (1998) Fold Des 3:R9-R23. The guanidinium-modified dendrimers were added to model protein solutions and incubated at an elevated temperature to determine how they influence the rate of this degradation pathway. […] At low dendrimer concentrations (0.05 M), the rate of monomer loss in the presence of the surface-modified dendrimer is slower than when compared to the reference solution. However, this aggregation rate reduction is insignificant when compared to the rate reduction induced by a high concentration of other commonly used additives such as arginine hydrochloride (ArgHCl), which is also depicted in the figure. Furthermore, as the concentration of the surface-modified dendrimer is increased, the aggregation rate reduction decreases until ultimately, the rate of aggregation is increased. At a concentration of 0.2 M, the surface-modified dendrimer induced rapid aggregation, causing a 50% loss in about 10 minutes as opposed to 30 minutes for the solution containing no cosolute. […]

`N=C(N)NCCNC(=O)CCN(CCC(=O)NCCNC(=N)N)CCN(CCC(=O)NCCNC(=N)N)CCC(=O)NCCNC(=N)N.O=P(O)(O)O.O=P(O)(O)O.O=P(O)(O)O.O=P(O)(O)O.O=P(O)(O)O.O=P(O)(O)O` [Gdm(H2PO4)] was tested, and the “relative rate constant for aCgn monomer loss” value (10 mg/mL aCgn, pH 5, 52.5° C.) was “approximately 0.02” and the “aCgn t95/t95, 0 (Shelf-Life Extension Factor)” value was 18.9.
For `N=C(N)NCCNC(=O)CCN(CCC(=O)NCCNC(=N)N)CCN(CCC(=O)NCCNC(=N)N)CCC(=O)NCCNC(=N)N.O=S(=O)(O)O.O=S(=O)(O)O.O=S(=O)(O)O` [Gdm(SO4)1/2], the “aCgn aggregation suppression compared with other salt forms / generations (FIG. 5, 6, 8)” value (10 mg/mL aCgn, pH 5, 52.5° C.) was “nearly identical ability for inhibiting aggregation as the H2PO4 salt form”, the “relative rate constant for aCgn monomer loss” value (10 mg/mL aCgn, pH 5, 52.5° C.) was “approximately 0.02” and the “aCgn t95/t95, 0 (Shelf-Life Extension Factor)” value was 26.9.

Reference: patent US9410142B2, “Dendrimer-based excipients for the attenuation of protein aggregation” (Massachusetts Institute of Technology, priority 2010, dated 2016)
